Measured values taken from patent US9567371B2, “Short beta-defensin-derived peptides” (Yeda Research and Development Co. Ltd., priority 2009, dated 2017).
Peptide text beside a SMILES is read from it.

How the values were obtained:
Type in all cases: in vivo, mouse
C57BL/6 mice [1] = assay: Mobilization assay: hematopoietic progenitor cells (CFU from PB MNC)
Protocol: FIG. 3. Dose-response effect of TL-1 and AK-1 on mobilization of hematopoietic progenitor cells to peripheral blood. C57BL/6 mice were s.c. injected with 1, 5 or 10 mg/kg of TL-1 or AK-1. Control mice were injected with PBS. After 1-1.5 h, mice were sacrificed, peripheral blood mononuclear cells (PB MNC) were separated by Ficoll, seeded into the methylcellulose, and the number of colony-forming units (CFU) was estimated. Data shown are the number of CFU per 2×10^5 seeded PB MNC cells. Vertical bars represent standard deviation of duplicate experiments. *P<0.05 compared to control.
FIG. 5. TL-1 synergizes with G-CSF to mobilize hematopoietic progenitor cells to peripheral blood. C57BL/6 mice were s.c. injected with 5 mg/kg of AMD3100 (AMD), TL-1, AK-1, TL-1+AMD3100, or AK-1+AMD3100. Other mice were injected with G-CSF, alone or with TL-1 or AMD3100. Control mice were injected with PBS. After 1-1.5 h, mice were sacrificed, peripheral blood mononuclear cells (PB MNC) were separated by Ficoll, seeded into the methylcellulose, and the number of colony-forming units (CFU) was estimated. Data shown are the number of CFU per 2×10^5 seeded PB MNC cells. Vertical bars represent standard deviation of duplicate experiments. *P<0.05 compared to control.
C57BL/6 mice were injected s.c. with PBS (control), 5 mg/kg AMD3100, or one of the peptides TL-1, cyclic TL-1 and AK-1, at various doses. Another group of mice was s.c. injected with 5 mg/kg AMD3100 together with TL-1, or cyclic TL-1, or AK-1 (all peptides at 5 mg/kg), 1-1.5 hr before sacrifice. An additional group of mice was s.c. injected with-G-CSF at a dose of 5 μg/mouse once a day for 5 days. Mice were sacrificed 4 hrs post last G-CSF injection; 1-1.5 before sacrifice, mice were injected with TL-1, cyclic TL-1 or AK-1, all at 5 mg/kg. Peripheral blood (PB) was collected from mice by cardiac puncture into heparin containing tubes and the number of white blood cells (WBC) per 1 mL of blood was calculated. The tubes were centrifuged, plasma was collected and kept at −20° C. until tested. In order to evaluate the number of progenitor cells, PB mononuclear cells were isolated using Ficoll gradient centrifugation, and seeded (2×10^5 cells/plate) in methylcellulose with cytokines as described (Spiegel, A., et al., 2004, Goichberg, P., et al., 2006). Colonies, reflecting colony-forming units (CFU), were scored after 7 days.
In the same experiments, blood mononuclear cells were collected and tested for the presence of colony-forming cells reflecting the number of HPC.

C57BL/6 mice [2] = assay: Mobilization assay: WBC number in peripheral blood
Protocol: FIG. 2. Dose-response effect of TL-1 and AK-1 on mobilization of WBC. C57BL/6 mice were s.c. injected with 1, 5 or 10 mg/kg of TL-1 or AK-1. Control mice were injected with phosphate buffered saline (PBS). After 1-1.5 h, mice were sacrificed and WBC number in the PB was calculated. Data shown are the mean±SD of 3 separate experiments. *P<0.05 compared to control.
FIG. 4. TL-1 synergizes with G-CSF to mobilize WBC. C57BL/6 mice were s.c. injected with G-CSF 2.5 μg/twice a day for four days. Eighteen hrs after the last injection mice were s.c. injected with 5 mg/kg of either TL-1, AK-1 or AMD3100 (AMD), sacrificed 1.5 h later, and the number of WBC was calculated. Control mice were injected with PBS or with TL-1, AK-1 or AMD3100 without pre-treatment with G-CSF. […]
C57BL/6 mice were injected s.c. with PBS (control), 5 mg/kg AMD3100, or one of the peptides TL-1, cyclic TL-1 and AK-1, at various doses. […] Peripheral blood (PB) was collected from mice by cardiac puncture into heparin containing tubes and the number of white blood cells (WBC) per 1 mL of blood was calculated. […] Colonies, reflecting colony-forming units (CFU), were scored after 7 days.
The cell mobilizing potential of the peptides was examined in intact C57BL/6 mice, using the protocol applied for AMD3100 (Broxmeyer, H. E., et al., 2005). First, the effect of different doses of the peptides was evaluated. […]

SDF-1 = SDF-1 plasma levels in injected mice (ELISA); conditions: 5 mg/kg s.c., compared with mice injected with PBS
Protocol: SDF-1 levels in tested samples were determined by ELISA as described (Kalinkovich, A., et al., 2006) where the K15C monoclonal antibodies (mAb, INRA, Paris, France) recognizing the first three amino acids of SDF-1 were utilized as a capture Ab (10 μg/mL) in order to measure levels of intact, non-cleaved SDF-1. Levels of basic FGF (bFGF) and HGF in tested samples were determined by using corresponding capture mAbs and polyclonal biotynilated Abs (R&D Systems) as recommended by the manufacturer. In order to examine SDF-1, bFGF and HGF levels in cell supernatants, MS-5, MBA-15 and MG-63 cells were seeded in 24-well Costar wells and cultivated in RPMI 1640 or αMEM Eagle medium, respectively, with 10% FCS. When the cells reached confluence, the medium was changed to serum free medium and cells were cultivated for additional 6 hrs in the presence of various concentrations of the peptides. Medium samples were collected and centrifuged 10 min at 6000×g at 4° C. to remove cell debris. Supernatants were collected and kept at −70° C. until tested.

N=C(N)NCCC[C@@H]1NC(=O)CNC(=O)[C@H](CCCNC(=N)N)NC(=O)[C@H](CCCCN)NC(=O)[C@H](CCCCN)NC(=O)[C@H](CCCNC(=N)N)NC(=O)[C@H](CCCNC(=N)N)NC(=O)[C@H](CS)NC(=O)[C@H](CS)NC(=O)[C@H](CCCCN)NC1=O [cyclic TL-1, 1,10-cyclo[RGRKCCRRKK]] (cyclo(CCRRKKRGRK))
HPC mobilization (colony-forming cells) (C57BL/6 mice [1]; 1 mg/kg s.c.): did not induce mobilization of HPC
HPC mobilization in combination with AMD3100 (C57BL/6 mice [1]; 5 mg/kg each): inhibited AMD3100-induced mobilization
HPC mobilization, peptide alone in the comparison/combination experiments (C57BL/6 mice [1]; 5 mg/kg s.c.): inhibitory effect
HPC mobilization (colony-forming cells) (C57BL/6 mice [1]; 5 mg/kg s.c., dose response experiments): did not induce mobilization of HPC
HPC mobilization (colony-forming cells) (C57BL/6 mice [1]; 10 mg/kg s.c.): inhibitory effect
WBC mobilization upon simultaneous injection with AMD3100 (C57BL/6 mice [2]; 5 mg/kg s.c. each): decreased its mobilizing capacity
WBC mobilization, dose response (C57BL/6 mice [2]; all tested doses: 1, 5 and 10 mg/kg s.c.): did not induce WBC mobilization
SDF-1 plasma levels (SDF-1): did not induce increase
